Source: PubChem BioAssay (NCI)
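A five-concentration, 48-hour dose response in 96-well plates underlies each endpoint, interpolated linearly between surrounding concentrations. GI50 = concentration required for 50% inhibition of growth. At the TGI there is no net growth.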

Key:
Assay in all cases: growth of human tumour cells (NCI), 48 h
A549 NSCLC = test system: A549 NSCLC
ACHN renal = test system: ACHN renal
CAKI-1 renal = test system: CAKI-1 renal
COLO 205 colon = test system: COLO 205 colon
HOP-92 NSCLC = test system: HOP-92 NSCLC
M14 melanoma = test system: M14 melanoma
NCI-H226 lung = test system: NCI-H226 lung
SF-539 CNS = test system: SF-539 CNS
SNB-75 CNS = test system: SNB-75 CNS
SW-620 colon = test system: SW-620 colon

| SMILES | GI50 (A549 NSCLC) [µM] | TGI (A549 NSCLC) [µM] | GI50 (ACHN renal) [µM] | TGI (ACHN renal) [µM] | GI50 (CAKI-1 renal) [µM] | TGI (CAKI-1 renal) [µM] | GI50 (COLO 205 colon) [µM] | TGI (COLO 205 colon) [µM] | GI50 (HOP-92 NSCLC) [µM] | TGI (HOP-92 NSCLC) [µM] | GI50 (M14 melanoma) [µM] | TGI (M14 melanoma) [µM] | GI50 (NCI-H226 lung) [µM] | TGI (NCI-H226 lung) [µM] | GI50 (SF-539 CNS) [µM] | TGI (SF-539 CNS) [µM] | TGI (SNB-75 CNS) [µM] | GI50 (SW-620 colon) [µM] | TGI (SW-620 colon) [µM] | GI50 (SNB-75 CNS) [µM] |
| --- | --- | --- | --- | --- | --- | --- | --- | --- | --- | --- | --- | --- | --- | --- | --- | --- | --- | --- | --- | --- |
| COc1ccc2c(c1)C(=O)c1c-2n(CCCN=[N+]=[N-])c(=O)c2cc(N)ccc12 | > 100 | > 100 | > 100 | > 100 | > 100 | > 100 | > 100 | > 100 | 58.8 | > 100 | > 100 | > 100 | > 100 | > 100 | > 100 | > 100 | > 100 | > 100 | > 100 |  |
| O=C(O)c1cc2cc(O)ccc2[nH]1 | > 100 | > 100 | > 100 | > 100 | > 100 | > 100 | > 100 | > 100 | > 100 | > 100 | > 100 | > 100 | > 100 | > 100 | > 100 | > 100 | > 100 | > 100 | > 100 | > 100 |
| COc1ccc(C2SCC(=O)N2NC(=O)C(O)c2ccccc2)cc1 (centres undefined) | > 100 | > 100 | > 100 | > 100 | > 100 | > 100 | > 100 | > 100 | > 100 | > 100 | > 100 | > 100 | > 100 | > 100 | > 100 | > 100 | > 100 | > 100 | > 100 | 80.9 |
| O=C(Nc1cc(C(F)(F)F)cc(C(F)(F)F)c1)Nc1ccc(OCc2nnc(-c3ccc(Cl)cc3)o2)c(F)c1 | 1.97 | 9.44 | 0.873 | 9.2 | 2.72 | 15.8 | 1.64 | 3.15 | 1.14 | 4.06 | 2.72 | 11.1 | 2.93 | 12.5 | 2.83 | 8.47 | 5.37 | 2.66 | 12.3 | 1.32 |
| C=C1[C@@H](O)C[C@H]2C(C)(C)C[C@H](Cl)C[C@]2(C)[C@H]1C[C@H](O)[C@H]1CC(=O)NC1=O | 0.0117 | 0.145 | 0.0166 | 0.176 | 0.0418 | 1.59 | < 0.01 | 0.0564 | < 0.0115 | 0.179 | < 0.0119 | 0.0492 | 0.0218 | 0.19 | < 0.0109 | 0.0597 | 0.706 | 0.0114 | 4.94 | 0.0287 |
| Cc1ccc(S(=O)(=O)NNC(C[N+](=O)[O-])c2ccccc2)cc1 (centres undefined) |  | > 100 |  | 40.9 |  | 47.7 |  | 30.8 |  | > 100 |  | > 100 |  | 90 |  | 81.5 | 41 |  | > 100 |  |
